Results reported in patent publication US20080090805A1, “CB-1 MODULATING COMPOUNDS AND THEIR USE” (ACADIA PHARMACEUTICALS INC., priority 2005, published 2008).
Like-named read-outs stand apart in the source and are kept apart here.

Target: CB1 (mutant) (Homo sapiens, UniProt P21554)
Assay: R-SAT functional receptor assay, CB1 (mutant, truncated after amino acid 417)
Assay type: cell-based
Conditions: R-SAT CB1; for IC50 / pIC50: receptor form (mutant or wild-type) not stated; for Emax / % Inhibition: receptor form not stated, relative to SR141716 (100%); for Emax: read-out: % Inhibition
[1] = Appendix A, read-out: pIC50 (converted)

Chain of CB1 (mutant) (P21554 1-417, change not shown): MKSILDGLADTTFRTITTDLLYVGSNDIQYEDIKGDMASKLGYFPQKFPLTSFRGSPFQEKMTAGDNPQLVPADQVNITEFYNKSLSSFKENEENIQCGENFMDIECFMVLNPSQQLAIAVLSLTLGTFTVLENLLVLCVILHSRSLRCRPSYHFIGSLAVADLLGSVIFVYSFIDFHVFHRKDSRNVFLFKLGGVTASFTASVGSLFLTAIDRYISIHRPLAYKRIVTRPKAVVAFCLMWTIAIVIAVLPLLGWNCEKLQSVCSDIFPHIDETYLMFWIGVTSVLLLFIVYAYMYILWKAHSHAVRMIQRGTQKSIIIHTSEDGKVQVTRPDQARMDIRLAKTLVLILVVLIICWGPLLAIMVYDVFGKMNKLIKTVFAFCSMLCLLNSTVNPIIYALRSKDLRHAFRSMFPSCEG

IC50 [1] | Emax (Appendix A) | pIC50 (Appendix A) | % Inhibition (Appendix A) | SMILES | IC50 (pIC50, Appendix A)
1.58 nM | 96% |  |  | O=C(NCCC(F)(F)F)c1ccc2c(c1)N=C(c1cccc(Cl)c1)c1ccccc1S2 [drawing 549] | 
 |  | 8.7 |  | CC(C)CNC(=O)c1ccc2c(c1)N=C(c1ccc(Cl)s1)c1ccccc1S2 [drawing 551] | 
2 nM | 114% |  |  | O=C(NCc1cccs1)c1ccc2c(c1)N=C(c1ccc(Cl)s1)c1ccccc1S2 [drawing 553] | 
50.1 nM | 84% |  |  | COc1cccc(C2=Nc3cc(C(=O)NCc4ccc(C)o4)ccc3Sc3ccccc32)n1 [drawing 554] | 
2 nM | 90% |  |  | O=C(NCCCC(F)(F)F)c1ccc2c(c1)N=C(c1ccsc1)c1ccccc1S2 [drawing 555] | 
2.51 nM | 96% |  |  | Cc1csc(CNC(=O)c2ccc3c(c2)N=C(c2cccc(F)c2)c2ccccc2S3)c1 [drawing 557] | 
2.51 nM | 85% |  |  | Cc1csc(CNC(=O)c2ccc3c(c2)N=C(c2cccc(C)n2)c2ccccc2S3)c1 [drawing 561] | 
2.51 nM | 93% |  |  | Cc1csc(CNC(=O)c2ccc3c(c2)N=C(c2ccsc2)c2ccccc2S3)c1 [drawing 563] | 
2.51 nM | 115% |  |  | CC(C)CCNC(=O)c1ccc2c(c1)N=C(c1cccc(Cl)c1)c1ccccc1S2 [drawing 567] | 
2.51 nM | 97% |  |  | O=C(NCc1cccs1)c1ccc2c(c1)N=C(c1ccc(F)cc1)c1ccccc1S2 [drawing 571] | 
2.51 nM | 108% |  |  | O=C(NCc1cccs1)c1ccc2c(c1)N=C(c1cccc(Cl)c1)c1ccccc1S2 [drawing 573] | 
3.16 nM | 65% |  |  | Cc1ccc(CNC(=O)c2ccc3c(c2)N=C(c2ccc(F)cc2)c2ccccc2S3)o1 [drawing 577] | 
3.16 nM | 112% |  |  | O=C(NCc1cccc(Cl)c1)c1ccc2c(c1)N=C(c1ccc(Cl)cc1)c1ccccc1S2 [drawing 579] | 
3.16 nM | 90% |  |  | CC(C)CNC(=O)c1ccc2c(c1)N=C(c1ccsc1)c1ccccc1S2 [drawing 581] | 
3.16 nM | 100% |  |  | O=C(NCc1ccco1)c1ccc2c(c1)N=C(c1cccc(Cl)c1)c1ccccc1S2 [drawing 583] | 
 |  | 8.5 | 93% | O=C(NCc1cccs1)c1ccc2c(c1)N=C(c1cccc(F)c1)c1ccccc1S2 [drawing 593] | 
50.1 nM | 86% |  |  | O=C(NCc1ccccc1Cl)c1ccc2c(c1)N=C(c1ccccc1)c1ccccc1S2 [drawing 594] | 
3.16 nM | 100% |  |  | O=C(NCc1cccs1)c1ccc2c(c1)N=C(c1cccc(F)c1)c1ccccc1S2 [drawing 595] | 
3.98 nM | 111% |  |  | Cc1ccsc1C1=Nc2cc(C(=O)NCCCC(F)(F)F)ccc2Sc2ccccc21 [drawing 599] | 
3.98 nM | 112% |  |  | O=C(NCc1cccc(Cl)c1)c1ccc2c(c1)N=C(c1cccc(Cl)c1)c1ccccc1S2 [drawing 603] | 

Continued, molecule first:

SMILES | IC50 [1] | Emax (Appendix A) | pIC50 (Appendix A) | % Inhibition (Appendix A) | IC50 (pIC50, Appendix A)
CC(C)NC(=O)c1ccc2c(c1)N=C(c1ccc(Cl)s1)c1ccccc1S2 [drawing 550] | 39.8 nM | 78% |  |  | 
CCCCNC(=O)c1cc2c(cc1O)Sc1ccccc1C(c1ccc(Cl)cc1)=N2 [drawing 552] | 50.1 nM | 95% |  |  | 
CCCCNC(=O)c1ccc2c(c1)N=C(c1ccc(Cl)cc1)c1cc(Cl)ccc1S2 [drawing 556] | 50.1 nM | 112% |  |  | 
CC(C)CNC(=O)c1ccc2c(c1)N=C(c1ccc(Cl)cn1)c1ccc(F)cc1S2 [drawing 558] | 50.1 nM | 123% |  |  | 
O=C(NCCCC(F)(F)F)c1ccc2c(c1)N=C(c1ccc(Cl)s1)c1ccccc1S2 [drawing 559] | 2.51 nM | 103% |  |  | 
CCCCNC(=O)c1ccc2c(c1)N=C(c1ccc(Cl)cn1)c1cc(F)ccc1S2 [drawing 560] | 50.1 nM | 100% |  |  | 
O=C(NCCc1ccccn1)c1ccc2c(c1)N=C(c1ccc(Cl)cc1F)c1ccccc1S2 [drawing 562] | 50.1 nM | 96% |  |  | 
O=C(NC1CCC(F)(F)CC1)c1ccc2c(c1)N=C(c1ccccn1)c1ccccc1S2 [drawing 564] | 50.1 nM | 79% |  |  | 
CC(C)CNC(=O)c1ccc2c(c1)N=C(c1cccc(Cl)c1)c1ccccc1S2 [drawing 565] |  |  |  | 105% | 
O=C(NCc1ccc(Cl)cc1Cl)c1ccc2c(c1)N=C(c1ccccc1F)c1ccccc1S2 [drawing 568] | 50.1 nM | 85% |  |  | 
O=C(NCCc1ccc(Cl)cc1)c1ccc2c(c1)N=C(c1cccc(Cl)c1)c1ccccc1S2 [drawing 569] | 2.51 nM | 106% |  |  | 
CCCC1=Nc2cc(C(=O)NCCc3ccc(OC)cc3OC)ccc2Sc2ccccc21 [drawing 570] | 50.1 nM | 101% |  |  | 
Cc1ccsc1C1=Nc2cc(C(=O)NC3CCCCC3)ccc2Sc2ccccc21 [drawing 572] | 50.1 nM | 88% |  |  | 
CCCCNC(=O)c1ccc2c(c1)N=C(c1ccc(Cl)s1)c1ccccc1S2 [drawing 575] | 3.16 nM |  |  | 97% | 
CC(C)NC(=O)c1ccc2c(c1)N=C(c1ccc(Cl)cc1)c1ccccc1S2 [drawing 576] | 50.1 nM | 98% |  |  | 
O=C(NN1CCCCCC1)c1ccc2c(c1)N=C(c1ccccc1F)c1ccccc1S2 [drawing 578] | 50.1 nM | 87% |  |  | 
CC(NC(=O)c1ccc2c(c1)N=C(c1cccc(Cl)c1)c1ccccc1S2)c1ccccc1 (centres unmarked) [drawing 582] | 50.1 nM | 87% |  |  | 
O=C(NCc1ccncc1)c1ccc2c(c1)N=C(c1ccc(Br)cc1)c1ccccc1S2 [drawing 586] |  | 84% |  |  | 50.1 nM
CC(CNC(=O)c1ccc2c(c1)N=C(c1cccc(Cl)c1)c1ccccc1S2)c1ccccc1 (centres unmarked) [drawing 587] | 3.16 nM | 112% |  |  | 
O=C(Cc1ccccc1)NNC(=O)c1ccc2c(c1)N=C(c1ccc(Cl)cc1)c1ccccc1S2 [drawing 588] | 50.1 nM | 85% |  |  | 
O=C(NCc1ccc(F)cc1)c1ccc2c(c1)N=C(c1ccc(Cl)cc1)c1ccccc1S2 [drawing 589] | 3.16 nM | 106% |  |  | 
O=C(NCc1ccc(F)cc1)c1ccc2c(c1)N=C(C1CCCCC1)c1ccccc1S2 [drawing 591] | 3.16 nM | 102% |  |  | 
CCOCCNC(=O)c1ccc2c(c1)N=C(c1ccc(F)cc1)c1ccccc1S2 [drawing 596] | 50.1 nM | 94% |  |  | 
O=C(NN1CCCCCC1)c1ccc2c(c1)N=C(c1cccc(Cl)c1)c1ccccc1S2 [drawing 597] | 3.98 nM | 95% |  |  | 
O=C(NC1CCCCC1)c1ccc2c(c1)N=C(c1ccccn1)c1ccccc1S2 [drawing 598] |  | 112% |  |  | 50.1 nM
O=C(NCCc1ccccc1)c1ccc2c(c1)N=C(c1ccccc1F)c1ccccc1S2 [drawing 600] | 50.1 nM | 98% |  |  | 
O=C(NCCCC(F)(F)F)c1ccc2c(c1)N=C(c1ccc(Cl)cc1)c1ccccc1S2 [drawing 601] | 3.98 nM | 105% |  |  | 
O=C(NCc1ccccc1Br)c1ccc2c(c1)N=C(c1ccccc1F)c1ccccc1S2 [drawing 602] | 50.1 nM | 65% |  |  | 
CCOCCNC(=O)c1ccc2c(c1)N=C(c1ccc(Cl)cc1)c1ccccc1S2 [drawing 604] | 50.1 nM | 92% |  |  | 
O=C(NCCC(F)(F)F)c1ccc2c(c1)N=C(c1ccsc1)c1ccccc1S2 [drawing 607] |  | 97% |  |  | 3.98 nM
